Test results as given in patent publication US20250034194A1, “INHIBITORS OF ABNORMAL PHOSPHORYLATION AND TAU PROTEIN AGGREGATION” (UNIVERSITE DE PICARDIE JULES VERNE, priority 2021, published 2025).

How the values were obtained:
[1] = molecular target: T1, tau protein (4R2N, 441 amino acids) (Homo sapiens, UniProt P10636); assay: In vitro abnormal tau phosphorylation by GSK3β, competition with heparin (western blot); assay type: biochemical; details: for ability to compete with heparin for abnormal tau phosphorylation by GSK3β / capacity to protect tau from its abnormal phosphorylation induced by heparin: molecule 60 μg/mL vs heparin 12 μg/mL; for ability to compete with heparin for abnormal tau phosphorylation by GSK3β: 1.5 to 6 h of reaction, AT270, Ser199/202; for capacity to protect tau from its abnormal phosphorylation induced by heparin: AT270 antibody
T1 construct: purchased Millipore (tau); Promega (GSK3β)
Excerpt: Phosphorylation of tau protein is the most common post-translational modification to regulate tau activity and functions. The longest tau isoform (4R2N, 441 amino acids) containing 85 potential phosphorylation sites was used. In vitro phosphorylation of the tau protein is done by induction, on the one hand, (FIG. 5) and, on the other hand, according to a competition process between the LG2A molecules and heparin, conventionally used to induce abnormal tau phosphorylation in vitro (FIGS. 3, 4, 6, 7, 8, 9 and 10).
For abnormal tau phosphorylation tests, GSK3p, a kinase centrally involved in this process in the brains of subjects with Alzheimer's disease (AD), was used. Analysis of tau phosphorylation by GSK3b at sites characteristic of AD is possible by the western blot technique using specific antibodies that recognize abnormally phosphorylated sites in the brain or cerebrospinal fluid of AD subjects, such as the AT270 antibody which recognizes threonine 181 (Thr181), the PHF1 antibody which recognizes serines 396 and 404 (Ser396/Ser404), and the AT8 antibody, which recognizes the Ser199/Ser202/Thr205 site.
By competition: The tau protein (40 μg/mL) is phosphorylated by the GSK3β enzyme at 4 ng/mL (Promega) in the presence of ATP (Sigma-Aldrich) at 48 μM and protease inhibitors (Sigma-Aldrich, 1/100), in the buffer mentioned above. The ability of the LG2A molecules (60 μg/mL) to compete with heparin (12 μg/mL; Sigma-Aldrich) is evaluated. Thus if the signal in the presence of the molecules is less than that obtained with heparin alone, the molecules are then defined as “protectors” from abnormal tau phosphorylation.
In both systems (induction or competition), the tau protein is incubated at 37° C. with stirring in the presence of the different elements presented above. The reaction kinetics are monitored by taking 8 μL of the samples at 1.5 h, 3 h and 6 h of incubation. Loading buffer (Euromedex) and β-mercaptoethanol (Sigma-Aldrich) are added to each sample. The samples are then stored at −20° C. until analysis by western blot.
After denaturation of the samples by heating at 95° C. for 5 minutes, the samples are deposited simultaneously with the molecular weight marker (Precision Plus Protein™ Dual Color Standards; BIO-RAD) on a 10% acrylamide gel placed in an electrophoresis tank containing migration buffer (0.25 M Tris; 1.6 M Glycine; […]; pH 8.6).
The controls used for this phosphorylation experiment followed by western blot are: • the “native tau” protein, that is to say the non-phosphorylated tau protein. • the tau protein phosphorylated by GSK3b alone in the absence of heparin. • the tau protein phosphorylated in the presence of heparin, denoted “tau+heparin”. • the “external standard” corresponding to the tau protein phosphorylated in the presence of heparin for 3 h. This standard is carried out in an experiment independently of the phosphorylation experiments in the presence of LG2A compounds. It ensures that the western blot is carried out correctly.
Then the membrane is incubated overnight with stirring at +4° C. in a solution of PBS, 0.1% Tween and 1% milk containing the primary antibody specific for tau phosphorylation sites (AT270, ThermoScientific or S199-202, Millipore).
After incubation of the PVDF membrane in the chosen primary antibody, a succession of 3 washes of 5 minutes of the membrane is carried out in PBS and 0.1% Tween with stirring and the membrane is incubated for 1 h with stirring at room temperature in a solution of 1×PBS, 0.1% Tween and 1% milk containing the diluted secondary antibody (Jackson Immuno-Research).

SH-SY5Y = assay: Cytotoxicity study, MTT test; assay type: cell-based; details: differentiated SH-SY5Y; 0.1 to 100 μg/mL; 24 hours
Protocol: In order to evaluate the level of toxicity of these molecules according to their concentration in the cellular environment, an MTT test (3-(4,5-dimethylthiazol-2-yl)-2,5-diphenyl tetrazolium bromide) is carried out (FIGS. 11 and 12) upstream of the phosphorylation tests in cellulo.
SH-SY5Y (ATCC-CRL-2266) are developed in Dulbecco's Modified Eagle Complete Medium (DMEM-GlutaMAX™, Life Technologies) with 10% foetal bovine serum (FBS) and 1% penicillin/streptomycin in an incubator at 37° C. with 5% CO2.
For this, the SH-SY5Y cells are cultured in a 6-well plate at a cell density of 200,000 cells/well and are differentiated using retinoic acid (10 μM, Sigma Aldrich) for 5 days. On day 6, the cells are brought into contact with LG2A molecules at different concentrations (0.1, 1, 10 or 100 μg/mL), in a final volume of 2 mL. After 24 hours, MTT (5 μg/mL; Sigma-Aldrich) is added to the cell medium for 2 hours at 37° C. Then the medium is removed and 200 μL of pure dimethylsulfoxide (DMSO, Sigma-Aldrich) are added to each well. The entire contents of each well are transferred to a 96-well plate and the absorbance is measured at 562 nm using the Infinite M1000 spectrofluorometer (Tecan).

[2] = test system: tau phosphorylation (S262 site) in SH-SY5Y cells; assay: In cellulo tau phosphorylation test in the SH-SY5Y line (H2O2 stress induction); assay type: cell-based; details: 24 hours, then H2O2
Protocol: The tau phosphorylation induction model on the SH-SY5Y cell line described in the Gly-CRRET laboratory article was used here (Sepulveda-Diaz et al., 2015).
In short, SH-SY5Y cells are seeded in 6-well plates and differentiated using retinoic acid (10 μM, Sigma Aldrich) for 5 days. On day 6, the cells are placed in the presence of the Mal16diS and Mal18diS molecules at different concentrations (1, 10 or 100 μg/mL), in a final volume of 2 mL simultaneously with a well not receiving molecules. After 24 hours, the molecules are removed and the stress inducer (H2O2, Sigma Aldrich) is added to the cell medium for 30 minutes. The cells are then rinsed with 1×PBS then lysed and recovered in RIPA buffer (Thermo Fisher). The protein extracts from the cells (10 μg) are then analysed by western blot according to the same procedure described above.
The tau phosphorylation site studied here is the S262 site (Thermo Fisher), normalized to the expression of the GAPDH protein (Sigma Aldrich). The bands are quantified using the Odyssey software of the LI-COR device allowing the p-tau/GAPDH ratio to be calculated for each of the conditions. The ratio obtained for each concentration of molecule is then expressed as a percentage of the ratio obtained for the control cells, i.e., not treated by the molecules. Thus a value less than 100% corresponds to protection provided by the molecules in this cellular model of tau phosphorylation induction.
The experiment was repeated at least 4 times for each molecule dose for the “Mal16diS” and “Mal18diS” molecules and at least twice for the “Cell16diS” and “Lac16diS” molecules. The mean and standard deviation of the replicates are shown in FIGS. 13 to 16; each of the values obtained for each dose is compared to that of the control without addition of molecule by means of a t-test. Statistical differences with p-value <0.05 and <0.001 are represented by “*” and “***” respectively.

[3] = molecular target: T1, tau protein (4R2N, 441 amino acids); details: GSK3β; FIG. 2, Sepulveda-Diaz et al, 2015; cited from earlier work

T1 sequence (P10636 1-441 isoform P10636-8): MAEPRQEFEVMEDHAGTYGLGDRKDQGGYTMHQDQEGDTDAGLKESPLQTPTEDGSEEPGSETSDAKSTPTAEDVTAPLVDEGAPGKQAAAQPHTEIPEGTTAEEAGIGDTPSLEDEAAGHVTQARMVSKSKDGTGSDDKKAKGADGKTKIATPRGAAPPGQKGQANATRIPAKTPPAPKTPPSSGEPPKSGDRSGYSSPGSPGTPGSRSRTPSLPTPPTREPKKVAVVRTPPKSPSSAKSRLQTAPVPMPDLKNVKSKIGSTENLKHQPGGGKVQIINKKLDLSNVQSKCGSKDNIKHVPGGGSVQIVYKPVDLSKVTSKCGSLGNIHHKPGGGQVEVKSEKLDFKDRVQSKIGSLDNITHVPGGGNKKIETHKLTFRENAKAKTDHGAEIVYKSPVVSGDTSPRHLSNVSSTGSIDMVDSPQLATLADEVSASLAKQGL

Compound	ability to compete with heparin for abnormal tau phosphorylation by GSK3β [1]	capacity to protect tau from its abnormal phosphorylation induced by heparin [1]	further results
N-Octadecyl-D-Glucuronyl-(α-1,4)-D-Xyluronamide [Mal18diOx]	does not compete with heparin		
N-Octadecyl-6,6′-Di-O-Sulfo-D-Cellobioamide Disodium [Cell18diS]	total competition with heparin		
CCCCCCCCCCCCCCCCCCNC(=O)C(O)C(O)C(O)C(O)COC1OC(COS(=O)(=O)[O-])C(O)C(O)C1O.[Na+] (centres unmarked) [Mel18monoS, N-Octadecyl-6′-O-Sulfo-Melibioamide Sodium]	do not compete with heparin		
N-Octadecyl-6,6′-Di-O-Sulfo-Lactobioamide Disodium [Lac18diS]	total competition with heparin		
N-Hexadecyl-D-Glucuronyl-(α-1,4)-D-Xyluronamide [Mal16diOx]		less effective than disulphated maltobionamide compounds with the same chain length	
CCCCCCCCCCCCCCCCNC(=O)C(OS(=O)(=O)[O-])C(OS(=O)(=O)[O-])C(OC1OC(COS(=O)(=O)[O-])C(OS(=O)(=O)[O-])C(OS(=O)(=O)[O-])C1OS(=O)(=O)[O-])C(COS(=O)(=O)[O-])OS(=O)(=O)[O-].[Na+].[Na+].[Na+].[Na+].[Na+].[Na+].[Na+].[Na+] [Mal16perS, N-Hexadecyl-Per-O-Sulfo-D-Maltobioamide Sodium Salt]		retains its ability to protect tau	
CCCCCCCCCCCCCCCCCCNC(=O)[C@H](O)[C@@H](O)[C@H](O[C@H]1OC(COS(=O)(=O)[O-])[C@@H](O)C(O)[C@@H]1O)[C@H](O)COS(=O)(=O)[O-].[Na+].[Na+] (stereo partly drawn) [Mal18diS, N-Octadecyl-6,6′-Di-O-Sulfo-D-Maltobionamide Disodium]	total competition with heparin		abnormal phosphorylation of tau (p-tau) revealed by AT270 and Ser199/202 antibodies ([1]; in presence of heparin, after 3 h of reaction): inhibited; cytotoxicity (MTT) (SH-SY5Y): not cytotoxic; reduction in tau phosphorylation (S262, p-tau/GAPDH) compared to untreated cells ([2]; 1 μg/mL): ~30%; reduction in tau phosphorylation (S262, p-tau/GAPDH) compared to untreated cells ([2]; 10 μg/mL): ~30%; reduction in tau phosphorylation (S262, p-tau/GAPDH) compared to untreated cells ([2]; 100 μg/mL): up to 60%
N-Octadecyl-Tri-O-Sulfo-D-Maltobioamide Trisodium [Mal18triS]		maintenance of this capacity to protect tau	
N-Hexadecyl-6,6′-Di-O-Sulfo-D-Cellobioamide Disodium [Cell16diS]	total competition with heparin		reduction in tau phosphorylation (S262, p-tau/GAPDH) compared to untreated cells ([2]; 1 μg/mL): approximately 34%; reduction in tau phosphorylation (S262, p-tau/GAPDH) compared to untreated cells ([2]; 10 μg/mL): 17%; reduction in tau phosphorylation (S262, p-tau/GAPDH) compared to untreated cells ([2]; 100 μg/mL): 20%
N-Hexadecyl-6,6′-Di-O-Sulfo-Lactobioamide Disodium [Lac16diS]	total competition with heparin		reduction in tau phosphorylation (S262, p-tau/GAPDH) compared to untreated cells ([2]; 1 μg/mL): 25%; reduction in tau phosphorylation (S262, p-tau/GAPDH) compared to untreated cells ([2]; 100 μg/mL): 54%
N-Octadecyl-6 or 6′-O-Sulfo-D-Maltobioamide Sodium [Mal18monoS]		slight loss of the protective capacity	
N-Hexadecyl-Tri-O-Sulfo-D-Maltobioamide Trisodium [Mal16triS]		maintenance of this capacity to protect tau	
heparin			phosphorylation of tau on sites characteristic of AD in the presence of heparin [3]: phosphorylation at all tau sites takes place
CCCCCCCCCCCCCCNC(=O)[C@H](O)[C@@H](O)[C@H](O)[C@H](O)CO[C@H]1O[C@H](COS(=O)(=O)[O-])[C@H](O)[C@H](O)[C@H]1O.[Na+] [Mel14monoS, N-Tetradecyl-6′-O-Sulfo-Melibioamide Sodium]	do not compete with heparin		
CCCCCCCCCCCCCCCCNC(=O)[C@H](O)[C@@H](O)[C@H](O)[C@H](O)CO[C@H]1O[C@H](COS(=O)(=O)[O-])[C@H](O)[C@H](O)[C@H]1O.[Na+] [Mel16monoS, N-Hexadecyl-6′-O-Sulfo-Melibioamide Sodium]	do not compete with heparin		
N-Hexadecyl-6 or 6′-O-Sulfo-D-Maltobioamide Sodium [Mal16monoS]		slight loss of the protective capacity	
